# Key:
# Proteus Mirabilis = assay: Promoting wave test (bio-wave model); assay type: cell-based; settings: final concentration 0.5% on LB plate, 37° C.
# Text: 2. Experimental results and evaluation: • The experiment adopted a bio-wave model for studying the promoting wave function of the compound of formula (I).
# [1] = Typical case: breast cancer patient, metastasis after operation; assay type: in vivo, human; settings: injection 15 g/60 kg/day before and for a week after the operation; within one year after the operation
# Text: Chen, female, was accepted by the Department of Surgery of Chuanxinan Mining Area Hospital for suffering with breast cancer. The chief physician, Chen Qi, considered the high metastasis rate after operation, administrated Chen via injected with the compound of formula (I) in a dose of 15 g/60 kg/day before the operation and for a continuous week after the operation.
# B16 cells = assay: Sole-injected B16 tumor growth in mice; assay type: in vivo, Kunming mice and Balbc mice; design: Diameter of tumor: unit not given here; settings: for Diameter of tumor: 10% aqueous solution i.p.
# Protocol: 1.1 Animals Kunming mice, Scad male mice
# 1.2 Tumor cells: B16 cells, PG cells and Biu cells, which were presented by from the Staff Room of Pathology of the present university and the Tumor Department of the Second Affiliated Hospital, respectively.
# 1.3 Methods: soles of Kunming mice and Balbc mice were injected with B16 cell suspension, and these mice were intraperitoneally injected with 10% aqueous solution of the compound of formula (I) at 0th, 4th and 7th day after B16 cells were injected.
# [2] = in vivo
# Text: 1. Acute toxicity test: including tests of administrating medicine orally, intravenous injection and maximum limit amount for administration;
structure (smiles),measurement,setting,value
"CC(=O)N[C@@H]1[C@@H](O)[C@H](O)[C@@H](CO)O[C@H]1O [compound of formula (I), N-acetyl-D-glucosamine]",promoting wave function (ring pattern compared with control),Proteus Mirabilis,many fine waves on each ring emerged
same,metastasis after operation,[1],no metastasis occurred
same,Diameter of tumor,"B16 cells; Group I (administered immediately), observation time 3",0
same,Diameter of tumor,"B16 cells; Group I (administered immediately), observation time 7",0.11
same,Diameter of tumor,"B16 cells; Group I (administered immediately), observation time 14",0.18
same,Diameter of tumor,"B16 cells; Group I (administered immediately), observation time 21",0.21
same,Diameter of tumor,"B16 cells; Group I (administered immediately), observation time 28",0.15
same,Diameter of tumor,"B16 cells; Group II (administered at the 4th day), observation time 3",0.05
same,Diameter of tumor,"B16 cells; Group II (administered at the 4th day), observation time 7",0.12
same,Diameter of tumor,"B16 cells; Group II (administered at the 4th day), observation time 14",0.43
same,Diameter of tumor,"B16 cells; Group II (administered at the 4th day), observation time 21",0.58
same,Diameter of tumor,"B16 cells; Group II (administered at the 4th day), observation time 28",0.72
same,Diameter of tumor,"B16 cells; Group III (administered at the 7th day), observation time 3",0.1
same,Diameter of tumor,"B16 cells; Group III (administered at the 7th day), observation time 7",0.21
same,Diameter of tumor,"B16 cells; Group III (administered at the 7th day), observation time 14",0.60
same,Diameter of tumor,"B16 cells; Group III (administered at the 7th day), observation time 21",1.10
same,Diameter of tumor,"B16 cells; Group III (administered at the 7th day), observation time 28",1.38
same,growth of tumor,"B16 cells; high concentration intraperitoneally injected, B16 cells",inhibited
same,acute dosage relative to the injection dosage for human being,[2],300 times
same,dosage at which the acute toxicosis reaction had not appeared,[2],more than 2 g/kg

# — patent publication US20070207198A1, “Use Of N-Acety1-D-Glucosamine In The Manufacture Of Medicaments For Anti-Tumors And Anti-Metastasis” (Beijing Sino-Hong Kong Dafu Science & Technology of Biowave …, priority 2003, published 2007)
